This note sets out measurements from ChEMBL document CHEMBL1649095, “A κ Opioid Pharmacophore Becomes a Spinally Selective κ-δ Agonist When Modified with a Basic Extender Arm” (2011).

Test [1] has as its system Mus musculus. The experiment in a line: Antinociceptive activity in icv dosed HSD:ICR(CD1) mouse by tail flick test. The format is functional. (In general: In hot-plate and tail-flick tests a longer latency is read as antinociception.)
For test [2], the system named is Mus musculus. The test is described as follows: Antinociceptive activity in intrathecally dosed HSD:ICR(CD1) mouse by tail flick test. The format is functional.
For test [3], the system named is Mus musculus. The experiment in a line: Potency index, ratio of antinociceptive ED50 in icv dosed HSD:ICR(CD1) mouse to antinociceptive ED50 in intrathecally dosed HSD:ICR(CD1) mouse. The format is functional.
The subject of test [4] is Mus musculus. The test is described as follows: Ratio of antinociceptive ED80 in intrathecally dosed HSD:ICR(CD1) mouse coadministered with 2.5 nmol kappa opioid receptor antagonist norBNI to ED80 in intrathecally dosed HSD:ICR(CD1) mouse. The format is functional.
The test system of test [5] is Mus musculus. The test is described as follows: Ratio of antinociceptive ED80 in intrathecally dosed HSD:ICR(CD1) mouse coadministered with 5 nmol delta opioid receptor antagonist NTI to ED80 in intrathecally dosed HSD:ICR(CD1) mouse. The format is functional.
Test [6] has as its target Opioid receptors; delta & kappa (Homo sapiens) (UniProt P41145+P41143). The experiment in a line: Agonist activity at kappa/delta opioid receptor expressed in HEK293 cells coexpressing chimeric Giiq protein assessed as stimulation of intracellular calcium. The format is functional, cell-based. On the technique in general: A change in cytosolic calcium serves as a functional read-out for many receptors and channels.

Test [7] concerns HEK293. The experiment in a line: Selectivity for kappa/delta opioid receptor expressed in HEK293 cells over mu opioid receptor expressed in HEK293 cells by intracellular calcium release assay. The format is cell-based.
The test system of test [8] is HEK293. The test is described as follows: Selectivity for kappa/delta opioid receptor expressed in HEK293 cells over kappa opioid receptor expressed in HEK293 cells by intracellular calcium release assay. The format is cell-based.
In test [9] the test system is HEK293. The experiment in a line: Selectivity for kappa/delta opioid receptor expressed in HEK293 cells over kappa/mu opioid receptor expressed in HEK293 cells by intracellular calcium release assay. The format is cell-based.
Test [10] relates to HEK293. The experiment in a line: Selectivity for kappa/delta opioid receptor expressed in HEK293 cells over mu/delta opioid receptor expressed in HEK293 cells by intracellular calcium release assay. The format is cell-based.

Structures are written as SMILES. The source made the active and inactive calls. The calls are words filed in the database; no cut-off is given here.

Sequence of Opioid receptors; delta & kappa (Homo sapiens) (P41143 whole entry, looked up): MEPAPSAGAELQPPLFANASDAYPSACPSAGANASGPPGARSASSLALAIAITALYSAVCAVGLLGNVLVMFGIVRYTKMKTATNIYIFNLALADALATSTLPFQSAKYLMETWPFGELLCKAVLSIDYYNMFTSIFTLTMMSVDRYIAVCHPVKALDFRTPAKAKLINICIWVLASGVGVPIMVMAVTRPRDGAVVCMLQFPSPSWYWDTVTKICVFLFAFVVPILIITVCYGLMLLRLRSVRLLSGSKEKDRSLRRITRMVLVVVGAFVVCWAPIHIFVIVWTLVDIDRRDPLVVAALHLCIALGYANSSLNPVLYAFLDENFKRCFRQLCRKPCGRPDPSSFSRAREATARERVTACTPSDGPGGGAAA
Sequence of Opioid receptors; delta & kappa (Homo sapiens) (P41145 whole entry, looked up): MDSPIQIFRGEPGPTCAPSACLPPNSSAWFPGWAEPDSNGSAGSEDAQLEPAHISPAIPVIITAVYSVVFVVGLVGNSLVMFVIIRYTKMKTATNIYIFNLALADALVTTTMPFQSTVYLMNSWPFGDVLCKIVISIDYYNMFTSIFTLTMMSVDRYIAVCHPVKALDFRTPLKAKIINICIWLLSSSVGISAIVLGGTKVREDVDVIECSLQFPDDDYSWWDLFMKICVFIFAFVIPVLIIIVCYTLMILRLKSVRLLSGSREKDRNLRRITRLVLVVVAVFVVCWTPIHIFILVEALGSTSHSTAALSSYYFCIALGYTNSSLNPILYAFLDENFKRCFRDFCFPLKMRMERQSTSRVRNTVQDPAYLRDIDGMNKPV

For `CNCCNC(=O)COCC(=O)NCC(=O)NCC(=O)NCC(=O)Nc1cccc([C@@H](CN2CCCC2)N(C)C(=O)Cc2ccc(Cl)c(Cl)c2)c1`, the ED50 in the test on Mus musculus [1] was 0.4 nmol; in the test on Mus musculus [2], 0.035 nmol. The “Ratio ED50” value with Mus musculus [3] was found to be 11.43.

For the molecule `CNCCCCNC(=O)COCC(=O)Nc1cccc([C@@H](CN2CCCC2)N(C)C(=O)Cc2ccc(Cl)c(Cl)c2)c1`, the figures for the ED50 with Mus musculus [1] and in the test on Mus musculus [2] were 0.52 nmol and 0.15 nmol, respectively. Besides, the “Ratio ED50” value in the test with Mus musculus [3] stood at 3.45.

Consider `CNCCCNC(=O)COCC(=O)NCC(=O)NCC(=O)Nc1cccc([C@@H](CN2CCCC2)N(C)C(=O)Cc2ccc(Cl)c(Cl)c2)c1`, for which the ED50 in the test with Mus musculus [1] turned out to be 0.58 nmol; in the test with Mus musculus [2], 0.0045 nmol. In addition, the “Ratio ED50” value in the test with Mus musculus [3] stood at 130.91. The Ratio in the test with Mus musculus [4] worked out at 28.5; in the test with Mus musculus [5] it was 9.97. Moreover, in test [6], the outcome was Active. The Selectivity ratio with HEK293 [7], in the test on HEK293 [8], with HEK293 [9] and in the test on HEK293 [10] was 66 throughout.

Take `CNCCCCNC(=O)COCC(=O)NCC(=O)Nc1cccc([C@@H](CN2CCCC2)N(C)C(=O)Cc2ccc(Cl)c(Cl)c2)c1`: the results for the ED50 in the test on Mus musculus [1] and in the test with Mus musculus [2] were 0.48 nmol and 0.17 nmol, respectively. Further, the “Ratio ED50” value in the test with Mus musculus [3] was 2.81.

As to `CN(C(=O)Cc1ccc(Cl)c(Cl)c1)[C@H](CN1CCCC1)c1cccc(NC(=O)CNC(=O)CNC(=O)COCC(=O)NCCCNC=O)c1`, the figures for the ED50 with Mus musculus [1] and in the test with Mus musculus [2] were 0.47 nmol and 0.02 nmol, respectively. The “Ratio ED50” value in the test on Mus musculus [3] was found to be 23.44.
